Data published in PubChem BioAssay (NCI).
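1) Cells in 96-well plates. 2) Compound, 48 h, 5 concentrations. 3) Linear interpolation between surrounding doses. 4) Unreached endpoint = highest concentration. TGI denotes the concentration required for complete inhibition of growth.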

Tests used:
Assay in all cases: NCI tumour cell line growth inhibition, 48 h
RXF 393 renal = system: RXF 393 renal
NCI-H226 lung = system: NCI-H226 lung
SF-268 CNS = system: SF-268 CNS
HCC-2998 colon = system: HCC-2998 colon
A498 renal = system: A498 renal
CAKI-1 renal = system: CAKI-1 renal
DMS 273 small cell lung = system: DMS 273 small cell lung
HCT-116 colon = system: HCT-116 colon
SNB-75 CNS = system: SNB-75 CNS
RXF-631 renal = system: RXF-631 renal
COLO 205 colon = system: COLO 205 colon
U251 CNS = system: U251 CNS
SF-539 CNS = system: SF-539 CNS
UACC-62 melanoma = system: UACC-62 melanoma
M14 melanoma = system: M14 melanoma
SF-295 CNS = system: SF-295 CNS
786-0 renal = system: 786-0 renal
XF 498 CNS = system: XF 498 CNS
SR leukemia = system: SR leukemia
ACHN renal = system: ACHN renal
KM20L2 colon = system: KM20L2 colon
A549 NSCLC = system: A549 NSCLC
OVCAR-4 ovarian = system: OVCAR-4 ovarian
SNB-78 CNS = system: SNB-78 CNS
K-562 leukemia = system: K-562 leukemia
NCI-H460 lung = system: NCI-H460 lung
CCRF-CEM leukemia = system: CCRF-CEM leukemia
MOLT-4 leukemia = system: MOLT-4 leukemia
SW-620 colon = system: SW-620 colon
M19-MEL melanoma = system: M19-MEL melanoma
HL-60(TB) leukemia = system: HL-60(TB) leukemia
DLD-1 colon = system: DLD-1 colon
EKVX NSCLC = system: EKVX NSCLC
OVCAR-5 ovarian = system: OVCAR-5 ovarian
LXFL 529 NSCLC = system: LXFL 529 NSCLC
RPMI-8226 leukemia = system: RPMI-8226 leukemia
SNB-19 CNS = system: SNB-19 CNS
TK-10 renal = system: TK-10 renal
SK-MEL-2 melanoma = system: SK-MEL-2 melanoma
DMS 114 small cell lung = system: DMS 114 small cell lung
OVCAR-3 ovarian = system: OVCAR-3 ovarian
KM12 colon = system: KM12 colon
SK-MEL-28 melanoma = system: SK-MEL-28 melanoma
LOX IMVI melanoma = system: LOX IMVI melanoma
UACC-257 melanoma = system: UACC-257 melanoma
UO-31 renal = system: UO-31 renal
HOP-92 NSCLC = system: HOP-92 NSCLC
NCI-H23 lung = system: NCI-H23 lung
SK-OV-3 ovarian = system: SK-OV-3 ovarian
HT29 colon = system: HT29 colon
IGROV1 ovarian = system: IGROV1 ovarian
HOP-62 NSCLC = system: HOP-62 NSCLC
MALME-3M melanoma = system: MALME-3M melanoma
HCT-15 colon = system: HCT-15 colon
OVCAR-8 ovarian = system: OVCAR-8 ovarian
NCI-H522 lung = system: NCI-H522 lung
SK-MEL-5 melanoma = system: SK-MEL-5 melanoma
SN12C renal = system: SN12C renal

Measured: TGI

CCC(O)(c1ccc(OC)cc1)C(c1ccc(OCc2ccccc2)cc1)c1ccc(OCc2ccccc2)cc1 (stereo not drawn)
> 100 µM: all assays above
